These are literature values, as cited in paper PMC7791840, “The R-enantiomer of ketorolac reduces ovarian cancer tumor burden in vivo” (BMC Cancer, 2021).

Details of series [1]: method as in PMID 8809637. Particulars: mice; cited from earlier work.
Series [2] deals with Rac1. Set-up: method as in earlier work. The conditions noted are these: cell-based assays, ovarian tumor cells; ref 23 (R-ketorolac), 27 (S-ketorolac); cited from earlier work.
The test system of series [3] is COX-2. Set-up: method as in PMID 26558612, PMID 10027870. The conditions noted are these: cited from earlier work.
Series [4] relates to Cdc42. The arrangement: method as in earlier work. The conditions noted are these: cell-based assays, ovarian tumor cells; ref 23 (R-ketorolac), 27 (S-ketorolac); cited from earlier work.
Series [5] deals with COX-1. Set-up: method as in PMID 26558612, PMID 10027870. Particulars: cited from earlier work.
For series [6], the system named is HEY8 ovarian cancer xenografts. The arrangement: method as in PMID 25595279. Particulars: cited from earlier work.

For orientation: IC50 means the concentration at which inhibition is half-maximal. Turning to `O=C(c1ccccc1)c1ccc2n1CC[C@@H]2C(=O)O` [S-ketorolac], the “Conversion of S-enantiomer to R-enantiomer” value in series [1] is “significantly converted to the R-enantiomer in mice”. The IC50 in series [2] is greater than 100000 nM; in series [3], 1460 nM; in series [4] it was greater than 100000 nM; in series [5] it was 460 nM.

Turning to `O=P(O)(O)C(O)(Cn1ccnc1)P(=O)(O)O` [zoledronic acid, Zoledronic acid], in series [6], the “Number of tumor nodules” value was “decreased” and the Tumor weight entry is “decreased”.
